Values quoted from earlier work in patent US12728162B2, “Methods of treating lung cancer with a PD-1 axis binding antagonist, a platinum agent, and a topoisomerase II inhibitor” (Genentech, Inc., priority 2018, dated 2026).

Which results are given for `[NH3+][Pt-2]1([NH3+])[O]C(=O)C2(CCC2)C(=O)[O]1` [Carboplatin, platinum, diammine [1,1-cyclobutanedicarboxylato (2-)-O,O′]—, (SP-4-2)]?
solubility in organic solvents (ethanol, acetone, and dimethylacetamide): virtually insoluble; solubility in water (water): approximately 14 mg/mL
